In PubChem BioAssay AID192 (DTP/NCI, 2004):
Values joined by “and” are separate entries in the source; they are usually repeats but may differ in a detail not shown here. Identical values can stand only once. Toxic doses and inconclusive results are not listed. Rule for the calls: active = survival T/C of 150% or more; inactive = T/C below 125% in these data.

System: BDF1 mice, B16 melanoma ip, median survival T/C
Assay: NCI In Vivo Anticancer Drug Screen. Data for tumor model B16 Melanoma (intraperitoneal) in B6D2F1 (BDF1) mice
Details: endpoint: median survival time, higher = longer survival
Summary of the method: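 Vehicle-treated animals serve as the reference (C); treated animals (T) are scored for survival or tumor size after tumor transplantation.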

[1] = dose: 50.0 mg/kg/injection, schedule: Q01DX009 (ip), vehicle: saline with Tween-80
[2] = dose: 100.0 mg/kg/injection, schedule: Q01DX009 (ip), vehicle: saline with Tween-80
[3] = dose: 100.0 mg/kg/injection, schedule: Q04DX003 (ip), vehicle: saline with Tween-80
[4] = dose: 200.0 mg/kg/injection, schedule: Q04DX003 (ip), vehicle: saline with Tween-80
[5] = dose: 400.0 mg/kg/injection, schedule: Q04DX003 (ip), vehicle: saline with Tween-80
[6] = dose: 100.0 mg/kg/injection, schedule: Q01DX009 (ip), vehicle: Klucel (hydroxypropylcellulose) (HPC)
[7] = dose: 400.0 mg/kg/injection, schedule: Q01DX009 (ip), vehicle: Klucel (hydroxypropylcellulose) (HPC)
[8] = dose: 25.0 mg/kg/injection, schedule: Q01DX009 (ip), vehicle: saline with Tween-80
[9] = dose: 12.5 mg/kg/injection, schedule: Q01DX009 (ip), vehicle: saline with Tween-80
[10] = dose: 50.0 mg/kg/injection, schedule: Q01DX009 (ip), vehicle: Klucel (hydroxypropylcellulose) (HPC)
[11] = dose: 50.0 mg/kg/injection, schedule: Q01DX009 (ip), vehicle: saline
[12] = dose: 100.0 mg/kg/injection, schedule: Q01DX009 (ip), vehicle: saline

Measured: T/C

CN1C(=O)NC(c2ccc(Cl)cc2)(c2ccc(Cl)cc2)C1=O
inactive: dose: 0.78 mg/kg/injection, schedule: Q01DX009 (ip), vehicle: water 100 % of control | dose: 1.56 mg/kg/injection, schedule: Q01DX009 (ip), vehicle: water 95 % of control | dose: 3.12 mg/kg/injection, schedule: Q01DX009 (ip), vehicle: water 100 % of control | dose: 6.25 mg/kg/injection, schedule: Q01DX009 (ip), vehicle: water 100 % of control and 112 % of control | dose: 12.5 mg/kg/injection, schedule: Q01DX009 (ip), vehicle: distilled water + Tween-80 100 % of control | dose: 12.5 mg/kg/injection, schedule: Q01DX009 (ip), vehicle: water 99 % of control and 102 % of control | dose: 25.0 mg/kg/injection, schedule: Q01DX009 (ip), vehicle: distilled water + Tween-80 105 % of control | dose: 25.0 mg/kg/injection, schedule: Q01DX009 (ip), vehicle: water 101 % of control and 105 % of control | dose: 50.0 mg/kg/injection, schedule: Q01DX009 (ip), vehicle: distilled water + Tween-80 99 % of control | dose: 100.0 mg/kg/injection, schedule: Q01DX009 (ip), vehicle: distilled water + Tween-80 116 % of control | dose: 200.0 mg/kg/injection, schedule: Q01DX009 (ip), vehicle: distilled water + Tween-80 98 % of control

O=C[C@@H](CO)O[C@H](C=O)n1cnc2c(=O)[nH]cnc21
inactive: dose: 37.5 mg/kg/injection, schedule: Q01DX009 (ip), vehicle: saline 95 % of control | dose: 75.0 mg/kg/injection, schedule: Q01DX009 (ip), vehicle: saline 95 % of control | dose: 150.0 mg/kg/injection, schedule: Q01DX009 (ip), vehicle: saline 88 % of control

O=C(O)CCN1C(=O)c2ccccc2C1=O
inactive: [1] 102 % of control | [2] 95 % of control | dose: 200.0 mg/kg/injection, schedule: Q01DX009 (ip), vehicle: saline with Tween-80 90 % of control

CC(C)(C)n1cc(C(=O)c2ccccc2)cc1-c1ccccc1
inactive: [3] 97 % of control | [4] 100 % of control | [5] 100 % of control

O=C(NC1CCCCC1)Oc1ccccc1-c1ccccc1
inactive: [6] 88 % of control | [7] 100 % of control

CC(C)NC(=O)c1ccc(N/N=[N+](/C)[O-])cc1
inactive: [8] 121 % of control | [1] 107 % of control | [2] 93 % of control and 111 % of control

C/C=C/CNc1ccc(C)cc1
inactive: [8] 102 % of control | [1] 102 % of control | [2] 92 % of control

COC(=O)C(C(=O)OC)C(Br)(OC(C)=O)OC(C)=O
inactive: dose: 50.0 mg/kg/injection, schedule: Q04DX003 (ip), vehicle: saline with Tween-80 105 % of control | [3] 95 % of control | [4] 99 % of control | [5] 103 % of control

Nc1ccccc1SC1CC(=O)N(c2ccc(I)cc2)C1=O (stereo unspecified)
inactive: [9] 100 % of control | dose: 25.0 mg/kg/injection, schedule: Q01DX009 (ip), vehicle: Klucel (hydroxypropylcellulose) (HPC) 108 % of control | [10] 97 % of control | [1] 88 % of control | [6] 88 % of control and 100 % of control

O=C1C(N2CCN(CCO)CC2)=C(N2CC2)C(=O)C(N2CCN(CCO)CC2)=C1N1CC1
inactive: dose: 0.25 mg/kg/injection, schedule: Q01DX009 (ip), vehicle: saline 122 % of control | dose: 0.5 mg/kg/injection, schedule: Q01DX009 (ip), vehicle: saline 122 % of control | dose: 1.0 mg/kg/injection, schedule: Q01DX009 (ip), vehicle: saline 109 % of control

COc1ccc([I+]c2cccc(Cl)c2)cc1Cl
inactive: dose: 6.25 mg/kg/injection, schedule: Q01DX009 (ip), vehicle: saline with Tween-80 112 % of control | [9] 112 % of control | [8] 104 % of control

COc1ccc2c(c1O)-c1cccc3c1[C@@H](C2)N(CCCl)CC3
inactive: dose: 4.0 mg/kg/injection, schedule: Q01DX009 (ip), vehicle: saline 91 % of control and 116 % of control | dose: 8.0 mg/kg/injection, schedule: Q01DX009 (ip), vehicle: saline 97 % of control and 120 % of control | dose: 16.0 mg/kg/injection, schedule: Q01DX009 (ip), vehicle: saline 97 % of control and 111 % of control

CC(C)(C)OC(=O)NC(CCC(=O)OCc1ccccc1)C(=O)ON1C(=O)CCC1=O (stereo unspecified)
inactive: [1] 95 % of control | [2] 90 % of control

O=C1C=CC(n2cc(F)c(=O)[nH]c2=O)O1 (stereo unspecified)
inactive: dose: 6.25 mg/kg/injection, schedule: Q01DX009 (ip), vehicle: saline 97 % of control | dose: 12.5 mg/kg/injection, schedule: Q01DX009 (ip), vehicle: saline 95 % of control | dose: 25.0 mg/kg/injection, schedule: Q01DX009 (ip), vehicle: saline 96 % of control | [11] 107 % of control | [12] 97 % of control

Nc1ccc(S(=O)(=O)Nc2cccc3ccccc23)cc1
inactive: [6] 100 % of control | dose: 200.0 mg/kg/injection, schedule: Q01DX009 (ip), vehicle: Klucel (hydroxypropylcellulose) (HPC) 100 % of control | [7] 96 % of control

CCOC(=O)CCC[P+](c1ccccc1)(c1ccccc1)c1ccccc1
inactive: dose: 5.0 mg/kg/injection, schedule: Q01DX009 (ip), vehicle: saline with Tween-80 117 % of control | dose: 20.0 mg/kg/injection, schedule: Q01DX009 (ip), vehicle: saline with Tween-80 117 % of control | dose: 40.0 mg/kg/injection, schedule: Q01DX009 (ip), vehicle: saline with Tween-80 121 % of control | dose: 66.0 mg/kg/injection, schedule: Q01DX009 (ip), vehicle: saline with Tween-80 116 % of control | dose: 80.0 mg/kg/injection, schedule: Q01DX009 (ip), vehicle: saline with Tween-80 113 % of control | [2] 100 % of control | dose: 140.0 mg/kg/injection, schedule: Q01DX009 (ip), vehicle: saline with Tween-80 112 % of control | dose: 160.0 mg/kg/injection, schedule: Q01DX009 (ip), vehicle: saline with Tween-80 116 % of control | dose: 210.0 mg/kg/injection, schedule: Q01DX009 (ip), vehicle: saline with Tween-80 104 % of control

Clc1ccc2c(c1)C(N1CCOCC1)c1cc(Cl)cc(Cl)c1-2 (stereo unspecified)
inactive: [12] 102 % of control | dose: 200.0 mg/kg/injection, schedule: Q01DX009 (ip), vehicle: saline 95 % of control | dose: 400.0 mg/kg/injection, schedule: Q01DX009 (ip), vehicle: saline 90 % of control | dose: 800.0 mg/kg/injection, schedule: Q01DX009 (ip), vehicle: saline 90 % of control

Cc1cc(C)c(NC(=O)Nc2ccccc2C)c(C)c1
inactive: dose: 25.0 mg/kg/injection, schedule: Q04DX003 (ip), vehicle: Klucel (hydroxypropylcellulose) (HPC) 102 % of control | dose: 50.0 mg/kg/injection, schedule: Q04DX003 (ip), vehicle: Klucel (hydroxypropylcellulose) (HPC) 97 % of control | dose: 100.0 mg/kg/injection, schedule: Q04DX003 (ip), vehicle: Klucel (hydroxypropylcellulose) (HPC) 90 % of control

CS(=O)(=O)c1cc(=O)[nH]c(=O)[nH]1
inactive: [8] 95 % of control | [2] 92 % of control

Cc1ccc(CNc2ccc(Cl)cc2)cc1
inactive: [10] 91 % of control | [6] 94 % of control

CC(=O)[O][Hg][c]1s[c]([Hg][O]C(C)=O)[c]([Hg][O]C(C)=O)[c]1[Hg][O]C(C)=O
inactive: dose: 0.75 mg/kg/injection, schedule: Q01DX009 (ip), vehicle: saline with Tween-80 102 % of control | dose: 1.5 mg/kg/injection, schedule: Q01DX009 (ip), vehicle: saline with Tween-80 92 % of control | dose: 3.0 mg/kg/injection, schedule: Q01DX009 (ip), vehicle: saline with Tween-80 87 % of control | dose: 6.0 mg/kg/injection, schedule: Q01DX009 (ip), vehicle: saline with Tween-80 97 % of control

C[CH2][Pb]([CH2]C)([CH2]C)[O]C(=O)c1ccccc1
inactive: dose: 0.75 mg/kg/injection, schedule: Q01DX009 (ip), vehicle: Klucel (hydroxypropylcellulose) (HPC) 93 % of control | dose: 1.5 mg/kg/injection, schedule: Q01DX009 (ip), vehicle: Klucel (hydroxypropylcellulose) (HPC) 90 % of control

O=C(NC(Cc1ccccc1)C(=O)O)OCC1c2ccccc2-c2ccccc21 (stereo unspecified)
inactive: [10] 106 % of control | [6] 114 % of control

O=C(O)c1cc2ccccc2cn1
inactive: [11] 102 % of control | [12] 100 % of control
